Ends that are not written are not given here.
Assays:
[1] = test system: 293T cells; assay type: cell-based, human; conditions: for Effect of other salts on enhancing TAN-mediated transfection: salt in place of CaCl2
Protocol: 293T (human embryonic kidney) cells were grown in Dulbecco's modified Eagle's medium (Life Technologies, Rockville, Md.) supplemented with 10% FBS, 100 units/ml penicillin, and 100 μg/ml of streptomycin in a 37° C. CO2 incubator. Cells were regularly passed to maintain growth. Twenty-four hours before transfection, cells were trypsinized and plated on 96-well plates (100 μl/well) in the above medium without the antibiotics. Ten μl of fraction 2 was added to 293T cells at 15% confluency in serum-containing medium. Fluorescence microscopy was performed at 12 hours, after changing medium and washing cells.
TAN (SEQ ID NO:3) at 0.1 to 5 μg per 96-well transfection was mixed with 0.1 μg plasmid pEGFP-N1 (BD ClonTech) for 5 min, diluted in 40 μl DMEM, then added to cells. Fluorescence microscopy was performed at different time points to observe the expression of GFP as the indication of transfection event. Note that by using GFP as reporter, the total transfection efficiency was underestimated due to certain percentage of cells would not express the GFP to levels high enough for detection.
Different concentrations of TAN (SEQ ID NO:3) and CaCl2 were tested in combination for transfection. TAT (SEQ ID NO:1) and another peptide, HT 31 (a widely used PKA-anchor interaction interruption peptide) were included as controls. Generally, experiments were performed similarly as in the above examples except that peptide was added to DNA first, followed by addition of CaCl2.

[2] = test system: approximately 300 bp PCR product linear dsDNA; test: Band-shift assay with short linear dsDNA (siRNA-expressing PCR product); assay type: binding; conditions: 30 min reaction, 2% gel
Protocol: In order to examine whether TAN could directly interact with the transfected plasmid DNA as predicted by the transfection results, band-shift assays were performed. Different amount of TAN (SEQ ID NO:3) dissolved in H2O was mixed with 0.5 μg of plasmid with or without 15 mM CaCl2, incubated for 5 min, followed by addition of 2 μl of DNA loading dye (30% glycerol), and loaded to 0.7% agarose gel. The EB-containing gel was run for about 45 min at 120 volts before the picture taken under UV lights.
The ability of TAN (SEQ ID NO:3) to bind short linear dsDNA also was examined. The DNA tested was an approximately 300 bp PCR product that is used to express small interfering RNAs (siRNAs). The experiments were done similarly to those described in Example 6, except that the reactions were allowed to proceed to 30 min and the gel was 2%. […] This difference may be due to a difference in the relative amount of DNA in each type of complex or to the structural constrains of linear versus circular DNA. […] Because these cassettes express siRNAs under the control of Pol III promoter as apposed to Pol II in GFP expression unit, it is therefore likely that peptide assisted transfection (PAT) is independent of promoter used, as expected.

[3] = test system: monkey kidney cell Vero-E6; test: Peptide as additive to TransIt-Oligo reagent transfection of pEFGP-N1; assay type: cell-based; conditions: 0.1 μg plasmid, 96-well, about 30% confluency, increasing amount of peptide

Compound: YGRKKRRQRRR [TAT]
- Effect of control peptide together with CaCl2 ([1]; control peptides with CaCl2 and DNA): caused cells to lyse
- Behaviour at slightly increased concentration [2]: quickly precipitated DNA
- Binding to linear dsDNA (band shift) [2]: did not bind at the lower concentrations
- Enhancement of TransIt-Oligo transfection by peptide [3]: did not show such enhancement

Compound: [Cl-].[Cl-].[Mg+2] [MgCl2]
- Effect of other salts on enhancing TAN-mediated transfection [1]: showed no effect

Compound: YGRKKRRQRRRGQRNPNKKWS [TAN]
- Toxicity to treated cells (growth arrest, cell death) ([1]; peptide/Ca++ transfection): did not show arrest of growth or cell death

Compound: [Cl-].[Na+] [NaCl]
- Effect of other salts on enhancing TAN-mediated transfection [1]: showed no effect

From US20050042603A1, “Compositions and methods for peptide-assisted transfection” (Allele Biotechnology & Pharmaceuticals, Inc., priority 2003, published 2005)
